According to US20260125411A1, “COMPOUND EMITTING LIGHT UNDER SPECIFIC CONDITIONS, AND METHOD FOR DETECTING CANCER STEM CELLS USING SAME” (Kyoto University, priority 2022, published 2026):

Experiments:
SUIT-2 cells = assay: Observation with confocal microscope, SUIT-2; format: cell-based, human; details: SUIT-2, FDG 20 μM, ex 488 nm, detection 500-600 nm
Protocol: (§1) Fluorescence imaging was performed using a confocal microscope LSM710 (Carl Zeiss AG). The excitation light used was at 488 nm (detection wavelength: 500-600 nm) and 633 nm (detection wavelength: 647-759 nm).
(§2) The cells were seeded in a 35 mm micro-Dish (μ-Dish 35 mm, high, ibidi, Germany) and cultured for 24 hours, followed by washing with DMEM (for SUIT-2 cells, NIH3T3 cells, HUVEC cells) or RPMI-1640 (for KATO-3 cells) containing no phenol red and no FBS. A dye and Aldefluor™ (StemCell Technologies, Inc., Canada) or FDG (Sigma-Aldrich, USA) were dissolved in DMSO and diluted in the medium. The cells were treated with 2 mL of the medium containing the dye and Aldefluor™ or FDG and cultured in air containing 5% CO2 at 37° C. for one hour, followed by observation with the confocal microscope. The number of cells seeded was 10×10^5 for KATO-3 cells, and 8×10^5 for the other cell types. The final concentrations of CHO_βgal, Aldefluor™, and FDG were 20 μM, 1 μM, and 20 μM, respectively. The DMSO content was 2%. FIG. 4 and FIG. 5 show the measurement results.

KATO-III cells = assay: Observation with confocal microscope, KATO-III; format: cell-based, human; details: FDG 20 μM, ex 488 nm, detection 500-600 nm
Protocol: as §1, §2

## O=C1OC2(c3ccc(O[C@@H]4O[C@H](CO)[C@H](O)[C@H](O)[C@H]4O)cc3Oc3cc(O[C@@H]4O[C@H](CO)[C@H](O)[C@H](O)[C@H]4O)ccc32)c2ccccc21 [FDG, fluorescein di-β-D-galactopyranoside]
SUIT-2 cells
  emission in cells: emission was observed throughout the cells
KATO-III cells
  emission in cells: emission was observed throughout the cells
